In brackets after ≈: the same amount, converted by molar mass. Where two headings read alike, the source gives them in different places.
Key:
[1] = physchem; conditions: pH 7
Method: Determination of the Kinetic Solubility in Phosphate Buffer
After shaking for approximately 30 seconds the reduction in light transmission of these samples, at 650 nm, was measured (Molecular Devices Spectromax UV/visible spectrophotometer). A second measurement was taken at approximately 30 seconds later.

[2] = target: Human plasma kallikrein (Homo sapiens (Human), UniProt P03952); experiment: Determination of the IC50 for plasma kallikrein; assay type: biochemical; conditions: 37° C., read-out: IC50 (human PKal)
Outline: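 Human plasma kallikrein incubated at 37° C with fluorogenic substrate H-DPro-Phe-Arg-AFC and varying compound concentrations. Initial reaction rate followed by absorbance change at 410 nm to give residual activity and IC50.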

[3] = target: Human KLK1 (Homo sapiens (Human), UniProt P06870); experiment: Determination of the IC50 for KLK1; assay type: biochemical; conditions: Human KLK1, 37° C., substrate H-DVal-Leu-Arg-AFC
Outline: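 IC50 values reflect residual human KLK1 activity, read as initial rate from optical absorbance change at 410 nm. Incubations ran at 37° C with H-DVal-Leu-Arg-AFC as substrate across a compound concentration series.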

[4] = Determination of thermodynamic solubility in phosphate buffer; assay type: physicochemical; conditions: pH 7.4, aqueous buffer, thermodynamic from solid, ammonium phosphate buffer pH7.4, 290 mOsm, 37° C., nominal 1 mg/mL, read-out: Solubility in PO4 buffer
Method: Determination of Thermodynamic Solubility in Phosphate Buffer
The thermodynamic solubility of compound was determined in Ammonium Phosphate Buffer (pH7.4, 290 mOsm). Compounds were made up at a nominal concentration of 1 mg/mL, vortexed then placed on a shaker for 1 h, 37° C. at approximately 950 rpm. Following incubation samples were transferred to eppendorf tubes and centrifuged at 15,000 g (r.c.f.) for 10 minutes at 37° C. The concentration of compound in the supernatant was determined by LC-MS/MS analysis using a calibration line prepared from a DMSO stock.

[5] = fluorogenic substrate H-DPro-Phe-Arg-AFC

Human KLK1, sequence (P06870 25-262): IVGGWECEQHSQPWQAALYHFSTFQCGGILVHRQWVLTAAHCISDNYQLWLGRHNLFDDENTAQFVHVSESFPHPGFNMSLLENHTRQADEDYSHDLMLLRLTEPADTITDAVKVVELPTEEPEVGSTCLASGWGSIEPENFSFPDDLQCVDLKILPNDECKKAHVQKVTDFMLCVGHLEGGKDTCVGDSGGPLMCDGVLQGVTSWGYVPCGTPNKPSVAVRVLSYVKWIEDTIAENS
Human plasma kallikrein, sequence (P03952 391-638): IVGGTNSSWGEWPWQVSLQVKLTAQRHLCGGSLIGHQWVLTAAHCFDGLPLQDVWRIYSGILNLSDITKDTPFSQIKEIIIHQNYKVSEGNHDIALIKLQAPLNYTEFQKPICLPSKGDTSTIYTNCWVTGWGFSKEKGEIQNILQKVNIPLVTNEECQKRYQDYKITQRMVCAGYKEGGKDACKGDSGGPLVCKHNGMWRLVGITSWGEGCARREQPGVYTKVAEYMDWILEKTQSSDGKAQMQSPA
Human plasma kallikrein, sequence (P03952 20-390 partner): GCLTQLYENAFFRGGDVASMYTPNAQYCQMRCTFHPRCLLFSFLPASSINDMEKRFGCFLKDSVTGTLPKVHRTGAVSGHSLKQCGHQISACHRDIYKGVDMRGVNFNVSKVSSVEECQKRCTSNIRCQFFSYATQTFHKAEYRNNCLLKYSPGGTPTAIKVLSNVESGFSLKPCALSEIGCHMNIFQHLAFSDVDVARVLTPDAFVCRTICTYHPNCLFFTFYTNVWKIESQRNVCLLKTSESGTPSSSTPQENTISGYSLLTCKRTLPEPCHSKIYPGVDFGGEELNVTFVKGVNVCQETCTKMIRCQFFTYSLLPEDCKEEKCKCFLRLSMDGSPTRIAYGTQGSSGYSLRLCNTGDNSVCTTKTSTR

Row | solubility in PO4 buffer [1] | IC50 [2, 5] | IC50 ([3]; Table 12) | solubility at 1 h [4] | IC50 ([2]; substrate H-DPro-Phe-Arg-AFC) | IC50 ([3]; Table 13) | Compound
1 | > 235 µM | 530 nM | > 10000 nM |  |  |  | CN(CC(=O)O)[C@H](CC1CCCCC1)C(=O)N[C@@H](Cc1ccccc1)C(=O)NCc1ccc(CN)c(F)c1 [Example 42, ({(R)-1-[(S)-1-(4-Aminomethyl-3-fluoro-benzylcarbamoyl)-2-phenyl-ethylcarbamoyl]-2-cyclohexyl-ethyl}-methyl-amino)-acetic acid]
2 | > 235 µM | 180 nM | > 10000 nM |  |  |  | CCOc1ccc(C[C@@H](NC(=O)C(C)C)C(=O)N(C)[C@@H](Cc2ccccc2)C(=O)NCc2ccc(CN)cc2)cc1 [Example 44, N-[(R)-1-{[(S)-1-(4-Aminomethyl-benzylcarbamoyl)-2-phenyl-ethyl]-methyl-carbamoyl}-2-(4-ethoxy-phenyl)-ethyl]-isobutyramide]
3 | > 235 µM | 1000 nM | > 10000 nM |  |  |  | NCc1ccc(CNC(=O)[C@H](Cc2ccccc2)NC(=O)[C@@H](CC2CCCCC2)NCCO)cc1 [Example 51, (R)-N-[(S)-1-(4-Aminomethyl-benzylcarbamoyl)-2-phenyl-ethyl]-3-cyclohexyl-2-(2-hydroxy-ethylamino)-propionamide]
4 |  |  |  | 11.5 µg/mL (≈ 19.9 µM) | 126 nM | 7500 nM | CCOc1ccc(C[C@@H](NC(=O)c2cccnc2)C(=O)N[C@@H](Cc2ccccc2)C(=O)NCc2ccc(CN)cc2)cc1 [Example 70, N-[(R)-1-[(S)-1-(4-Aminomethyl-benzylcarbamoyl)-2-phenyl-ethylcarbamoyl]-2-(4-ethoxy-phenyl)-ethyl]-nicotinamide]
5 |  |  |  | 0.5 µg/mL (≈ 0.77 µM) | 219 nM | 1200 nM | CCOc1ccc(C[C@@H](NS(=O)(=O)c2ccc(Cl)cc2)C(=O)N[C@@H](Cc2ccccc2)C(=O)NCc2ccc(CN)cc2)cc1 [Example 84, (R)-N-[(S)-1-(4-Aminomethyl-benzylcarbamoyl)-2-phenyl-ethyl]-2-(4-chloro-benzenesulfonylamino)-3-(4-ethoxy-phenyl)-propionamide]
6 |  |  |  | 0.2 µg/mL (≈ 0.337 µM) |  |  | CCOc1ccc(C[C@@H](NC(=O)c2ccc(C)cc2)C(=O)N[C@@H](Cc2ccccc2)C(=O)NCc2ccc(CN)cc2)cc1 [Example 92, N-[(R)-1-[(S)-1-(4-Aminomethyl-benzylcarbamoyl)-2-phenyl-ethylcarbamoyl]-2-(4-ethoxy-phenyl)-ethyl]-4-methyl-benzamide]
7 |  |  |  | 2.05 µg/mL (≈ 3.37 µM) |  |  | CCOc1ccc(C[C@@H](NC(=O)c2ccc(OC)cc2)C(=O)N[C@@H](Cc2ccccc2)C(=O)NCc2ccc(CN)cc2)cc1 [Example 95, N-[(R)-1-[(S)-1-(4-Aminomethyl-benzylcarbamoyl)-2-phenyl-ethylcarbamoyl]-2-(4-ethoxy-phenyl)-ethyl]-4-methoxy-benzamide]
8 |  |  |  | 2.88 µg/mL (≈ 4.83 µM) | 95 nM | > 10000 nM | CCOc1ccc(C[C@@H](NC(=O)c2ccc(F)cc2)C(=O)N[C@@H](Cc2ccccc2)C(=O)NCc2ccc(CN)cc2)cc1 [Example 99, N-[(R)-1-[(S)-1-(4-Aminomethyl-benzylcarbamoyl)-2-phenyl-ethylcarbamoyl]-2-(4-ethoxy-phenyl)-ethyl]-4-fluoro-benzamide]
9 |  |  |  | 0.56 µg/mL (≈ 0.945 µM) |  |  | CCCOc1ccc(C[C@@H](NC(=O)c2ccccc2)C(=O)N[C@@H](Cc2ccccc2)C(=O)NCc2ccc(CN)cc2)cc1 [Example 131, N-[(R)-1-[(S)-1-(4-Aminomethyl-benzylcarbamoyl)-2-phenyl-ethylcarbamoyl]-2-(4-propoxy-phenyl)-ethyl]-benzamide]
10 |  |  |  | 2.28 µg/mL (≈ 3.69 µM) |  |  | CCOc1ccc(C[C@@H](NC(=O)c2ccccc2)C(=O)N[C@@H](Cc2c[nH]c3ccccc23)C(=O)NCc2ccc(CN)cc2)cc1 [Example 176, N-[(R)-1-[(S)-1-(4-Aminomethyl-benzylcarbamoyl)-2-(1H-indol-3-yl)-ethylcarbamoyl]-2-(4-ethoxy-phenyl)-ethyl]-benzamide]

Second part, the compound before the results:

Row | Compound | solubility in PO4 buffer [1] | IC50 [2, 5] | IC50 ([3]; Table 12) | solubility at 1 h [4] | IC50 ([2]; substrate H-DPro-Phe-Arg-AFC) | IC50 ([3]; Table 13)
11 | CN(CC(=O)O)[C@H](CC1CCCCC1)C(=O)N[C@@H](Cc1ccc(Cl)c(Cl)c1)C(=O)NCc1ccc(CN)c(F)c1 [Example 43, ({(R)-1-[(S)-1-(4-Aminomethyl-3-fluoro-benzylcarbamoyl)-2-(3,4-dichloro-phenyl)-ethylcarbamoyl]-2-cyclohexyl-ethyl}-methyl-amino)-acetic acid] | > 235 µM | 1300 nM | > 10000 nM |  |  | 
12 | CCCN(C)[C@H](CC1CCCCC1)C(=O)N[C@@H](Cc1ccccc1)C(=O)NCc1ccc(CN)cc1 [Example 45, (R)-N-[(S)-1-(4-Aminomethyl-benzylcarbamoyl)-2-phenyl-ethyl]-3-cyclohexyl-2-(methyl-propyl-amino)-propionamide] | > 235 µM | 790 nM | > 10000 nM |  |  | 
13 | NCc1ccc(CNC(=O)[C@H](Cc2ccccc2)NC(=O)[C@H](N)C(C2CCCCC2)C2CCCCC2)cc1 [Example 52, (R)-2-Amino-N-[(S)-1-(4-aminomethyl-benzylcarbamoyl)-2-phenyl-ethyl]-3,3-dicyclohexyl-propionamide] | > 235 µM | 860 nM | 9500 nM |  |  | 
14 | CCCN(CCC)[C@H](CC1CCCCC1)C(=O)N[C@@H](Cc1ccccc1)C(=O)NCc1ccc(CN)cc1 [Example 53, (R)-N-[(S)-1-(4-Aminomethyl-benzylcarbamoyl)-2-phenyl-ethyl]-3-cyclohexyl-2-dipropylamino-propionamide] | > 235 µM | 650 nM | > 10000 nM |  |  | 
15 | CCOc1ccc(C[C@@H](NC(=O)CC)C(=O)N2CC[C@H](c3ccccc3)[C@H]2C(=O)NCc2ccc(CN)cc2)cc1 [Example 67, (2S,3R)-1-[(R)-3-(4-Ethoxy-phenyl)-2-propionylamino-propionyl]-3-pheny-pyrrolidine-2-carboxylic acid 4-aminomethyl-benzylamide] | > 235 µM | 1600 nM | > 10000 nM |  |  | 
16 | CCOc1ccc(C[C@@H](NC(=O)c2ccncc2)C(=O)N[C@@H](Cc2ccccc2)C(=O)NCc2ccc(CN)cc2)cc1 [Example 71, N-[(R)-1-[(S)-1-(4-Aminomethyl-benzylcarbamoyl)-2-phenyl-ethylcarbamoyl]-2-(4-ethoxy-phenyl)-ethyl]-isonicotinamide] |  |  |  | 22.1 µg/mL (≈ 38.1 µM) | 77 nM | > 10000 nM
17 | CCOc1ccc(C[C@@H](NC(=O)c2ccsc2)C(=O)N[C@@H](Cc2ccccc2)C(=O)NCc2ccc(CN)cc2)cc1 [Example 72, Thiophene-3-carboxylic acid-[(R)-1-[(S)-1-(4-aminomethyl-benzylcarbamoyl)-2-phenyl-ethylcarbamoyl]-2-(4-ethoxy-phenyl)-ethyl]-amide] |  |  |  | 6.9 µg/mL (≈ 11.8 µM) | 46 nM | 9100 nM
18 | CCOc1ccc(C[C@@H](NC(=O)c2cccs2)C(=O)N[C@@H](Cc2ccccc2)C(=O)NCc2ccc(CN)cc2)cc1 [Example 73, Thiophene-2-carboxylic acid [(R)-1-[(S)-1-(4-aminomethyl-benzylcarbamoyl)-2-phenyl-ethylcarbamoyl]-2-(4-ethoxy-phenyl)-ethyl]-amide] |  |  |  | 5.1 µg/mL (≈ 8.72 µM) | 25 nM | 9300 nM
19 | CCOc1ccc(C[C@@H](NC(=O)C2CCCCC2)C(=O)N[C@@H](Cc2ccccc2)C(=O)NCc2ccc(CN)cc2)cc1 [Example 75, Cyclohexanecarboxylic acid [(R)-1-[(S)-1-(4-aminomethyl-benzylcarbamoyl)-2-phenyl-ethylcarbamoyl]-2-(4-ethoxy-phenyl)-ethyl]-amide] |  |  |  | 1.06 µg/mL (≈ 1.81 µM) | 270 nM | > 10000 nM
20 | CCOc1ccc(C[C@@H](NC(=O)c2ccno2)C(=O)N[C@@H](Cc2ccccc2)C(=O)NCc2ccc(CN)cc2)cc1 [Example 79, Isoxazole-5-carboxylic acid [(R)-1-[(S)-1-(4-aminomethyl-benzylcarbamoyl)-2-phenyl-ethylcarbamoyl]-2-(4-ethoxy-phenyl)-ethyl]-amide] |  |  |  | 2.4 µg/mL (≈ 4.21 µM) | 38 nM | 8600 nM
21 | CCOc1ccc(C[C@@H](NC(=O)c2ccccn2)C(=O)N[C@@H](Cc2ccccc2)C(=O)NCc2ccc(CN)cc2)cc1 [Example 81, Pyridine-2-carboxylic acid [(R)-1-[(S)-1-(4-aminomethyl-benzylcarbamoyl)-2-phenyl-ethylcarbamoyl]-2-(4-ethoxy-phenyl)-ethyl]-amide] |  |  |  | 1.3 µg/mL (≈ 2.24 µM) | 40 nM | > 10000 nM
22 | CCOc1ccc(C[C@@H](NC(=O)c2cccc(Cl)c2)C(=O)N[C@@H](Cc2ccccc2)C(=O)NCc2ccc(CN)cc2)cc1 [Example 88, N-[(R)-1-[(S)-1-(4-Aminomethyl-benzylcarbamoyl)-2-phenyl-ethylcarbamoyl]-2-(4-ethoxy-phenyl)-ethyl]-3-chloro-benzamide] |  |  |  | 0.2 µg/mL (≈ 0.326 µM) | 90 nM | > 10000 nM

— patent publication US9234000B2, “Benzylamine derivatives as inhibitors of plasma kallikrein” (KalVista Pharmaceuticals Limited, priority 2011, dated 2016)
